Experimental findings from patent US20120207733A1 (priority 2011, published 2012) are described below.

The test system of the assay is DU-145 cells. It counts as cell-based, Human.

Turning to `C=C1[C@@H](C)[C@H]2[C@H](Cc3ccccc3)NC(=O)[C@]23[C@H](OC(C)=O)/C=C/[C@@](C)(O)C(=O)[C@@H](C)C/C=C/[C@H]3[C@@H]1O` [Cytochalasin-D], the “Effect on cell migration” value was “did not migrate”; the “Relative Wound Density at 24 Hours, Mean” value came out at 3.3 ± 0.2; the “Relative Wound Density at 24 Hours, Percent Relative to Media” value was found to be 4%.
